Experimental data published in PubChem BioAssay (NCI).
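A five-concentration, 48-hour dose response in 96-well plates underlies each endpoint, interpolated linearly between surrounding concentrations. Definition used: TGI = concentration required for complete inhibition of growth.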

What was measured:
Test in all cases: DTP human tumour cell line panel, 48 h
UACC-257 melanoma = tested on: UACC-257 melanoma
SN12C renal = tested on: SN12C renal
LOX IMVI melanoma = tested on: LOX IMVI melanoma
K-562 leukemia = tested on: K-562 leukemia
SNB-75 CNS = tested on: SNB-75 CNS
U251 CNS = tested on: U251 CNS
T-47D breast = tested on: T-47D breast
NCI-H522 lung = tested on: NCI-H522 lung
NCI/ADR-RES ovarian = tested on: NCI/ADR-RES ovarian
MDA-MB-435 = tested on: MDA-MB-435
M14 melanoma = tested on: M14 melanoma
HCC-2998 colon = tested on: HCC-2998 colon
NCI-H226 lung = tested on: NCI-H226 lung
OVCAR-5 ovarian = tested on: OVCAR-5 ovarian
KM12 colon = tested on: KM12 colon
MOLT-4 leukemia = tested on: MOLT-4 leukemia
ACHN renal = tested on: ACHN renal
IGROV1 ovarian = tested on: IGROV1 ovarian
SW-620 colon = tested on: SW-620 colon
EKVX NSCLC = tested on: EKVX NSCLC
A549 NSCLC = tested on: A549 NSCLC
SR leukemia = tested on: SR leukemia
HOP-62 NSCLC = tested on: HOP-62 NSCLC
SK-OV-3 ovarian = tested on: SK-OV-3 ovarian
NCI-H23 lung = tested on: NCI-H23 lung
CAKI-1 renal = tested on: CAKI-1 renal
SF-295 CNS = tested on: SF-295 CNS
MCF7 breast = tested on: MCF7 breast
MALME-3M melanoma = tested on: MALME-3M melanoma
UO-31 renal = tested on: UO-31 renal
CCRF-CEM leukemia = tested on: CCRF-CEM leukemia
SK-MEL-28 melanoma = tested on: SK-MEL-28 melanoma
MDA-N = tested on: MDA-N
NCI-H460 lung = tested on: NCI-H460 lung
SF-539 CNS = tested on: SF-539 CNS
RXF 393 renal = tested on: RXF 393 renal
SK-MEL-2 melanoma = tested on: SK-MEL-2 melanoma
RPMI-8226 leukemia = tested on: RPMI-8226 leukemia
SNB-19 CNS = tested on: SNB-19 CNS
OVCAR-8 ovarian = tested on: OVCAR-8 ovarian
BT-549 breast = tested on: BT-549 breast
786-0 renal = tested on: 786-0 renal
A498 renal = tested on: A498 renal
TK-10 renal = tested on: TK-10 renal
DU-145 prostate = tested on: DU-145 prostate
SF-268 CNS = tested on: SF-268 CNS
HCT-116 colon = tested on: HCT-116 colon
SK-MEL-5 melanoma = tested on: SK-MEL-5 melanoma
OVCAR-4 ovarian = tested on: OVCAR-4 ovarian
HCT-15 colon = tested on: HCT-15 colon
PC-3 prostate = tested on: PC-3 prostate
UACC-62 melanoma = tested on: UACC-62 melanoma
COLO 205 colon = tested on: COLO 205 colon
MDA-MB-231 breast = tested on: MDA-MB-231 breast
HL-60(TB) leukemia = tested on: HL-60(TB) leukemia
HOP-92 NSCLC = tested on: HOP-92 NSCLC
HT29 colon = tested on: HT29 colon
OVCAR-3 ovarian = tested on: OVCAR-3 ovarian

`COc1ccc2c(c1)CC[C@@H]1[C@@H]2CC[C@]2(C)C(=O)/C(=C/c3ccc(C#N)cc3)C[C@@H]12` gave a TGI (UACC-257 melanoma) greater than 100 µM, a TGI (SN12C renal) greater than 100 µM and a TGI (LOX IMVI melanoma) greater than 100 µM. It also gave a TGI (K-562 leukemia) greater than 100 µM, a TGI (SNB-75 CNS) greater than 100 µM and a TGI (U251 CNS) greater than 100 µM. It also gave a TGI (T-47D breast) greater than 100 µM, a TGI (NCI-H522 lung) greater than 100 µM and a TGI (NCI/ADR-RES ovarian) greater than 100 µM. The TGI (MDA-MB-435) was greater than 100 µM, the TGI (M14 melanoma) was greater than 100 µM and the TGI (HCC-2998 colon) was greater than 100 µM. The TGI (NCI-H226 lung) was greater than 100 µM, the TGI (OVCAR-5 ovarian) was greater than 100 µM and the TGI (KM12 colon) was greater than 100 µM. For the same compound, the TGI (MOLT-4 leukemia) was greater than 100 µM, the TGI (ACHN renal) was greater than 100 µM and the TGI (IGROV1 ovarian) was greater than 100 µM. The TGI (SW-620 colon) was greater than 100 µM, the TGI (EKVX NSCLC) was greater than 100 µM and the TGI (A549 NSCLC) was greater than 100 µM. For the same compound, the TGI (SR leukemia) was greater than 100 µM, the TGI (HOP-62 NSCLC) was greater than 100 µM and the TGI (SK-OV-3 ovarian) was greater than 100 µM. For the same compound, the TGI (NCI-H23 lung) was greater than 100 µM, the TGI (CAKI-1 renal) was greater than 100 µM and the TGI (SF-295 CNS) was greater than 100 µM. The TGI (MCF7 breast) was greater than 100 µM, the TGI (MALME-3M melanoma) was greater than 100 µM and the TGI (UO-31 renal) was greater than 100 µM. For the same compound, the TGI (CCRF-CEM leukemia) was greater than 100 µM, the TGI (SK-MEL-28 melanoma) was greater than 100 µM and the TGI (MDA-N) was greater than 100 µM. For the same compound, the TGI (NCI-H460 lung) was greater than 100 µM, the TGI (SF-539 CNS) was greater than 100 µM and the TGI (RXF 393 renal) was greater than 100 µM. The TGI (SK-MEL-2 melanoma) was greater than 100 µM, the TGI (RPMI-8226 leukemia) was greater than 100 µM and the TGI (SNB-19 CNS) was greater than 100 µM. For the same compound, the TGI (OVCAR-8 ovarian) was greater than 100 µM, the TGI (BT-549 breast) was greater than 100 µM and the TGI (786-0 renal) was greater than 100 µM. It also gave a TGI (A498 renal) greater than 100 µM, a TGI (TK-10 renal) greater than 100 µM and a TGI (DU-145 prostate) greater than 100 µM. The TGI (SF-268 CNS) was greater than 100 µM, the TGI (HCT-116 colon) was greater than 100 µM and the TGI (SK-MEL-5 melanoma) was greater than 100 µM. For the same compound, the TGI (OVCAR-4 ovarian) was greater than 100 µM, the TGI (HCT-15 colon) was greater than 100 µM and the TGI (PC-3 prostate) was greater than 100 µM. For the same compound, the TGI (UACC-62 melanoma) was greater than 100 µM, the TGI (COLO 205 colon) was greater than 100 µM and the TGI (MDA-MB-231 breast) was greater than 100 µM.
`CC(C)(/C=N\O)NO` showed a TGI (UACC-257 melanoma) greater than 10 µM, a TGI (SN12C renal) greater than 10 µM and a TGI (HL-60(TB) leukemia) greater than 10 µM. The TGI (LOX IMVI melanoma) was greater than 10 µM, the TGI (K-562 leukemia) was greater than 10 µM and the TGI (U251 CNS) was greater than 10 µM. The TGI (T-47D breast) was greater than 10 µM, the TGI (NCI-H522 lung) was greater than 10 µM and the TGI (NCI/ADR-RES ovarian) was greater than 10 µM. It also gave a TGI (MDA-MB-435) greater than 10 µM, a TGI (M14 melanoma) greater than 10 µM and a TGI (HCC-2998 colon) greater than 10 µM. For the same compound, the TGI (NCI-H226 lung) was greater than 10 µM, the TGI (OVCAR-5 ovarian) was greater than 10 µM and the TGI (KM12 colon) was greater than 10 µM. For the same compound, the TGI (MOLT-4 leukemia) was greater than 10 µM, the TGI (ACHN renal) was greater than 10 µM and the TGI (SW-620 colon) was greater than 10 µM. For the same compound, the TGI (EKVX NSCLC) was greater than 10 µM, the TGI (A549 NSCLC) was greater than 10 µM and the TGI (SR leukemia) was greater than 10 µM. For the same compound, the TGI (HOP-62 NSCLC) was greater than 10 µM, the TGI (NCI-H23 lung) was greater than 10 µM and the TGI (HOP-92 NSCLC) was greater than 10 µM. For the same compound, the TGI (CAKI-1 renal) was greater than 10 µM, the TGI (SF-295 CNS) was greater than 10 µM and the TGI (MCF7 breast) was greater than 10 µM. The TGI (MALME-3M melanoma) was greater than 10 µM, the TGI (UO-31 renal) was greater than 10 µM and the TGI (CCRF-CEM leukemia) was greater than 10 µM. For the same compound, the TGI (MDA-N) was greater than 10 µM, the TGI (NCI-H460 lung) was greater than 10 µM and the TGI (HT29 colon) was greater than 10 µM. The TGI (RXF 393 renal) was greater than 10 µM, the TGI (SK-MEL-2 melanoma) was greater than 10 µM and the TGI (RPMI-8226 leukemia) was greater than 10 µM. The TGI (SNB-19 CNS) was greater than 10 µM, the TGI (OVCAR-8 ovarian) was greater than 10 µM and the TGI (BT-549 breast) was greater than 10 µM. For the same compound, the TGI (786-0 renal) was greater than 10 µM, the TGI (TK-10 renal) was greater than 10 µM and the TGI (DU-145 prostate) was greater than 10 µM. The TGI (SF-268 CNS) was greater than 10 µM, the TGI (HCT-116 colon) was greater than 10 µM and the TGI (OVCAR-4 ovarian) was greater than 10 µM. For the same compound, the TGI (HCT-15 colon) was greater than 10 µM, the TGI (PC-3 prostate) was greater than 10 µM and the TGI (COLO 205 colon) was greater than 10 µM. It also gave a TGI (MDA-MB-231 breast) greater than 10 µM and a TGI (OVCAR-3 ovarian) greater than 10 µM.
`COc1cc(Br)cc2cc(C3=CSC4=NCCN34)c(=O)oc12` gave a TGI (UACC-257 melanoma) of 65.8 µM, a TGI (SN12C renal) of 32 µM and a TGI (HL-60(TB) leukemia) of 77.6 µM. It also gave a TGI (LOX IMVI melanoma) of 33.7 µM, a TGI (K-562 leukemia) greater than 100 µM and a TGI (SNB-75 CNS) of 43.3 µM. It also gave a TGI (U251 CNS) of 32.6 µM, a TGI (T-47D breast) of 42.2 µM and a TGI (NCI/ADR-RES ovarian) greater than 100 µM. For the same compound, the TGI (MDA-MB-435) was 33.9 µM, the TGI (M14 melanoma) was 49.4 µM and the TGI (OVCAR-5 ovarian) was 54.5 µM. It also gave a TGI (KM12 colon) of 39 µM, a TGI (MOLT-4 leukemia) of 69.5 µM and a TGI (ACHN renal) of 80.6 µM. The TGI (IGROV1 ovarian) was 32.5 µM, the TGI (SW-620 colon) was 49.1 µM and the TGI (EKVX NSCLC) was 32.3 µM. The TGI (A549 NSCLC) was 50.8 µM, the TGI (SR leukemia) was 63.4 µM and the TGI (HOP-62 NSCLC) was 34.9 µM. For the same compound, the TGI (SK-OV-3 ovarian) was 66.2 µM, the TGI (NCI-H23 lung) was 40.8 µM and the TGI (HOP-92 NSCLC) was 36.7 µM. It also gave a TGI (CAKI-1 renal) greater than 100 µM, a TGI (SF-295 CNS) of 35.8 µM and a TGI (MCF7 breast) of 33 µM. It also gave a TGI (UO-31 renal) of 35.6 µM, a TGI (CCRF-CEM leukemia) of 56.8 µM and a TGI (SK-MEL-28 melanoma) of 59.4 µM. The TGI (MDA-N) was 34.4 µM, the TGI (NCI-H460 lung) was 40.3 µM and the TGI (HT29 colon) was 34.7 µM. It also gave a TGI (SF-539 CNS) of 37.4 µM, a TGI (RXF 393 renal) of 34.6 µM and a TGI (SK-MEL-2 melanoma) of 40 µM. It also gave a TGI (RPMI-8226 leukemia) of 55.3 µM, a TGI (SNB-19 CNS) of 33.4 µM and a TGI (OVCAR-8 ovarian) of 34.4 µM. For the same compound, the TGI (BT-549 breast) was 42.2 µM, the TGI (786-0 renal) was 32.7 µM and the TGI (TK-10 renal) was 34.8 µM. The TGI (DU-145 prostate) was 33 µM, the TGI (HCT-116 colon) was 32.2 µM and the TGI (SK-MEL-5 melanoma) was 35.3 µM. For the same compound, the TGI (OVCAR-4 ovarian) was 37.2 µM, the TGI (HCT-15 colon) was 37.2 µM and the TGI (PC-3 prostate) was 35.6 µM. For the same compound, the TGI (UACC-62 melanoma) was 33.6 µM, the TGI (COLO 205 colon) was 43.5 µM and the TGI (MDA-MB-231 breast) was 36 µM. It also gave a TGI (OVCAR-3 ovarian) of 33.1 µM.
